{"source": "paper PMC4474554", "about": "(PLoS ONE, 2015)", "key": {"[1]": {"test_system": "ALK", "conditions": "updated data; cited from earlier work"}, "[2]": {"test_system": "c-Src", "conditions": "updated data; cited from earlier work"}, "[3]": {"test_system": "PKA", "parameters": "method as in earlier work", "conditions": "updated data; cited from earlier work"}, "[4]": {"test_system": "Syk", "parameters": "method as in earlier work", "conditions": "updated data; cited from earlier work"}, "[5]": {"test_system": "IGF-1R", "parameters": "method as in earlier work", "conditions": "updated data; cited from earlier work"}, "[6]": {"test_system": "Flt-3", "parameters": "method as in earlier work", "conditions": "updated data; cited from earlier work"}, "[7]": {"test_system": "RPC-9", "assay": "MTS assay, RPC-9"}, "[8]": {"test_system": "A549", "assay": "MTS assay, A549"}, "[9]": {"test_system": "Ret (M918T)", "parameters": "method as in earlier work", "conditions": "updated data; cited from earlier work"}, "[10]": {"test_system": "JAK-2", "parameters": "method as in earlier work", "conditions": "updated data; cited from earlier work"}, "[11]": {"test_system": "HER2", "conditions": "updated data; cited from earlier work"}, "[12]": {"test_system": "MKN45", "assay": "MTS assay, MKN45"}, "[13]": {"test_system": "ZAP-70", "parameters": "method as in earlier work", "conditions": "updated data; cited from earlier work"}, "[14]": {"test_system": "NCI-H2228", "assay": "MTS assay, NCI-H2228"}, "[15]": {"assay": "Body weight / side effects in xenograft mice", "format": "in vivo, BALB/c-nu/nu female nude mice", "conditions": "14 days, nude mice with xenografts", "procedure": "(§1) In this experiment, we used BALB/c-nu/nu female nude mice at 4–6 weeks of age that were purchased from Charles River Laboratories Japan, Inc (Yokohama, Japan). They were maintained under specific-pathogen-free conditions in accordance with the guidelines of the Animal Care and Use Committee at Okayama University. […] Every three days, body weight of the mice and the major axis and minor axis of each tumor were measured and calculated tumor volume using the following formula; (major axis) × (minor axis)^2 × 1/2 [37, 38]. For the 14 days, tumor volume, tumor growth rate and the body weight were analyzed as an average of the each group."}, "[16]": {"test_system": "NCI-H1395", "assay": "MTS assay, NCI-H1395"}, "[17]": {"test_system": "NCI-H3255", "assay": "MTS assay, NCI-H3255"}, "[18]": {"test_system": "phospho-EGFR and downstream AKT, MAPK", "assay": "Western blotting, EGFR, AKT and MAPK phosphorylation in NSCLC cell lines", "format": "cell-based", "procedure": "Next, they were washed out with cold PBS and lysed in 1 × cell lysis buffer [20 mM Tris-HCl (pH 7.5), 150 mM NaCl, 1 mM Na2EDTA, 1 mM EGTA, 1% Triton, 2.5 mM sodium pyrophosphate, 1 mM beta-glycerophosphate, 1 mM Na3VO4, 1 μg/ml leupeptin] (Cell signaling Technology) supplemented with Complete, Mini (Roche, Basel, Switzerland) to extract protein. After the protein concentration was measured, equal amounts of total protein (30 μg) were separated by SDS-PAGE and transferred to PVDF membranes. The proteins on membranes were incubated overnight at 4°C with the primary antibodies. The following secondary antibodies were used: goat antirabbit or antimouse IgG-conjugated horseradish peroxidase (HRP) (Santa Cruz Biotechnology, Santa Cruz, CA). To detect specific signals, the membranes were incubated by ECL plus Western Blotting Detection Reagents (Amersham Biosciences UK Limited, Buckinghamshire, UK)."}, "[19]": {"test_system": "c-Met", "conditions": "updated data; cited from earlier work"}, "[20]": {"test_system": "Flt-1", "parameters": "method as in earlier work", "conditions": "updated data; cited from earlier work"}, "[21]": {"test_system": "PC-9 xenograft", "assay": "PC-9 xenograft mouse model", "format": "in vivo, BALB/c-nu/nu female nude mice", "conditions": "oral, once a day, 14 days, 30, 60 and 90 mg/kg, dose-dependent", "procedure": "as §1"}, "[22]": {"test_system": "c-Kit", "parameters": "method as in earlier work", "conditions": "updated data; cited from earlier work"}, "[23]": {"test_system": "Pyk2", "parameters": "method as in earlier work", "conditions": "updated data; cited from earlier work"}, "[24]": {"test_system": "PC-9", "assay": "MTS assay, PC-9"}, "[25]": {"test_system": "Tek", "parameters": "method as in earlier work", "conditions": "updated data; cited from earlier work"}, "[26]": {"test_system": "Flt-4", "parameters": "method as in earlier work", "conditions": "updated data; cited from earlier work"}, "[27]": {"conditions": "EGFR-mutant cell lines PC-9, HCC827, NCI-H1975, RPC-9"}}, "note": "Several values for one entry are separate records, joined by “and”; a condition that tells them apart may be missing. Equal values may be shown once. Entries after “also recorded” stand apart in the source; their conditions may differ. Read-outs that look alike come from different tables or passages of the source."}
{"compound": "CNC(=O)c1ccccc1Nc1nc(Nc2ccc(N3CCOCC3)cc2OC)ncc1Cl", "note": "[TAE226]", "values": [{"measurement": "IC50", "setting": "[1]", "result": "[…]"}, {"measurement": "IC50", "setting": "[2]", "result": 910, "unit": "nM"}, {"measurement": "IC50", "setting": "[3]", "result": "> 10000", "unit": "nM"}, {"measurement": "IC50", "setting": "[4]", "result": "[…]"}, {"measurement": "IC50", "setting": "[5]", "result": "[…]"}, {"measurement": "IC50", "setting": "[6]", "result": "[…]"}, {"measurement": "IC50", "setting": "[7]; read-out: IC50 (μM) (mean ± SD), RPC-9, EGFR Exon 19 del (E746-A750) + T790M, MTS, TAE226 48 hours, gefitinib 72 hours", "result": "0.31 ± 0.03", "unit": "µM"}, {"measurement": "IC50", "setting": "[7]; read-out: each IC50, RPC-9, independent MTS assays", "result": "0.35 µM and 0.33 µM and 0.28 µM and 0.27 µM"}, {"measurement": "IC50", "setting": "[8]; read-out: IC50 (μM) (mean ± SD), A549, KRAS Codon 12 (G12S), MTS, TAE226 48 hours, gefitinib 72 hours", "result": "1.4 ± 0.05", "unit": "µM"}, {"measurement": "IC50", "setting": "[8]; read-out: each IC50, A549, independent MTS assays", "result": "1.4 µM and 1.3 µM"}, {"measurement": "IC50", "setting": "[8]; read-out: mean IC50, A549, mean of independent MTS assays", "result": 1.4, "unit": "µM"}, {"measurement": "IC50", "setting": "[9]", "result": "[…]"}, {"measurement": "IC50", "setting": "[10]", "result": 840, "unit": "nM"}, {"measurement": "IC50", "setting": "[11]", "result": 950, "unit": "nM"}, {"measurement": "IC50", "setting": "[12]; read-out: IC50 (μM) (mean ± SD), MKN45 (gastric cancer), MET amplification, MTS, TAE226 48 hours", "result": "1.1 ± 0.06", "unit": "µM"}, {"measurement": "IC50", "setting": "[12]; read-out: each IC50, MKN45, independent MTS assays", "result": "1.04 µM and 1.16 µM"}, {"measurement": "IC50", "setting": "[13]", "result": 7700, "unit": "nM"}, {"measurement": "IC50", "setting": "[14]; read-out: IC50 (μM) (mean ± SD), NCI-H2228, EML4-ALK fusion Variant 3, MTS, TAE226 48 hours, gefitinib 72 hours", "result": "0.28 ± 0.001", "unit": "µM"}, {"measurement": "IC50", "setting": "[14]; read-out: each IC50, NCI-H2228, independent MTS assays", "result": 0.28, "unit": "µM"}, {"measurement": "IC50", "setting": "[14]; read-out: mean IC50, NCI-H2228, mean of independent MTS assays", "result": 0.28, "unit": "µM"}, {"measurement": "obvious side effects, including the loss of body weight", "setting": "[15]; 30mg/kg or 60mg/kg oral", "result": "did not occur"}, {"measurement": "body weight", "setting": "[15]; 90 mg/kg oral", "result": "loss of body weight was observed"}, {"measurement": "IC50", "setting": "[16]; read-out: IC50 (μM) (mean ± SD), NCI-H1395, BRAF Exon 11 (G469A), MTS, TAE226 48 hours", "result": "[…]"}, {"measurement": "IC50", "setting": "[16]; read-out: each IC50, NCI-H1395, independent MTS assays", "result": "[…]"}, {"measurement": "IC50", "setting": "[16]; read-out: mean IC50, NCI-H1395, mean of independent MTS assays", "result": "[…]"}, {"measurement": "IC50", "setting": "[17]; read-out: IC50 (μM) (mean ± SD), NCI-H3255, EGFR Exon 21 (L858R), MTS, TAE226 48 hours, gefitinib 72 hours", "result": "0.12 ± 0.005", "unit": "µM"}, {"measurement": "IC50", "setting": "[17]; read-out: each IC50, NCI-H3255, independent MTS assays", "result": "0.12 µM and 0.13 µM"}, {"measurement": "IC50", "setting": "[17]; read-out: mean IC50, NCI-H3255, mean of independent MTS assays", "result": 0.12, "unit": "µM"}, {"measurement": "phosphorylation of EGFR", "setting": "[18]; [27]", "result": "predominantly inhibited"}, {"measurement": "phosphorylations of AKT and MAPK", "setting": "[18]; [27]", "result": "inhibited"}, {"measurement": "phosphorylations of EGFR, AKT, and MAPK", "setting": "[18]; cell lines with wild-type EGFR (NCI-H1299 and NCI-H1819)", "result": "not inhibited"}, {"measurement": "IC50", "setting": "[19]", "result": 160, "unit": "nM"}, {"measurement": "IC50", "setting": "[20]", "result": "[…]"}, {"measurement": "tumor volume / tumor growth compared with vehicle-treated mice", "setting": "[21]", "result": "significantly decreased; also recorded: significantly inhibited"}, {"measurement": "IC50", "setting": "[22]", "result": "> 10000", "unit": "nM"}, {"measurement": "IC50", "setting": "[23]", "result": 40, "unit": "nM"}, {"measurement": "IC50", "setting": "[24]; read-out: IC50 (μM) (mean ± SD), PC-9, EGFR Exon 19 del (E746-A750), MTS, TAE226 48 hours, gefitinib 72 hours", "result": "0.16 ± 0.01", "unit": "µM"}, {"measurement": "IC50", "setting": "[24]; read-out: each IC50, PC-9, independent MTS assays", "result": "[…]"}, {"measurement": "IC50", "setting": "[24]; read-out: mean IC50, PC-9, mean of independent MTS assays", "result": 0.16, "unit": "µM"}, {"measurement": "IC50", "setting": "[25]", "result": 580, "unit": "nM"}, {"measurement": "IC50", "setting": "[26]", "result": 220, "unit": "nM"}]}
